# From patent publication US10653672B2, “Myogenesis promotor, muscle atrophy inhibitor, medical composition and TAZ activator” (National University Corporation Tokyo Medical and Dental …, priority 2014, dated 2020)
# How the values were obtained:
# Balb/c ByJ mice = test: Recovery of cardiotoxin-induced muscle damage; type: in vivo, mouse; details: intraperitoneal injection of 100 mM stock on days 2, 4 and 6 after cardiotoxin; day 7
# Method: Experiments were conducted with mice according to procedures approved by the Institutional Animal Case and Use Committee (see FIG. 9A to 9F). For the experiments, Balb/c ByJ mice (6 weeks, female) were used. The bar in the figures is 50 μm. The line and the error bar indicate the average value and the standard error, *p<0.05, i.e refers to intramuscular injection, and i.p refers to intraperitoneal injection.
# (1) Cardiotoxin was diluted to 10 μM with phosphate buffered saline (PBS). The cardiotoxin solution (100 μl) was added with 0.3 μL of DMSO, or 0.3 μL of 10 mM IBS008738 stock solution in DMSO, respectively, and the solution was injected to the anterior tibial muscles on the right and the left, respectively. Three mice were used for one experiment, and the experiment was performed twice. The mice were sacrificed at day 5. […]
# (3) Observation of muscle tissues was performed by fixing the anterior tibial muscle with 4% formalin and embedding the same in paraffin or O.C.T. compound, and staining muscle sections of 5 μm with haematoxylin and eosin. Further, Pax 7 was detected with anti-Pax 7 antibody and visualized with 3,3′-diaminobenzidine. […] The number of the Pax7-positive cells and the number of the centrally nucleated muscle fibers were counted at 6 fields at 20-fold magnification. […]
# HCT116 cells = test: Immunoblotting of EMT markers in HCT116 cells; type: cell-based, human
# Method: (1) A431 cells, (epidermoid carcinoma), A549 cells (adenocarcinomic human alveolar basal epithelial cell) and HCT116 cells (human colon cancer) were treated with IBS008738 or DMSO, respectively, and evaluated by immunoblotting.
# HEK293, A431, A549, HCT116, MCF7 and SW480 cells were cultured in Dulbecco's Modified Eagle Medium (DMEM) containing 10% fetal bovine serum (FBS), 10 mM HEPES-NaOH at pH 7.4, 100 U/ml penicillin and 100 mg/I streptomycin under 5% CO2 at 37° C.
# A431 cells = test: Proliferation of A431 cells in 3D matrigel; type: cell-based; details: A431 cells in 2% BD Matrigel; 10 μM; 10 days; maximum diameter of 30 cell aggregates
# Method: (2) Each well of a 96-well plate was pre-coated with 30 μL BD Matrigel (trade name, Becton, Dickinson and Company). A431 cells were suspended in the 2% BD Matrigel at a concentration of 2.1×10^6 cells/mL. This cell solution (140 μL) was added with 0.17 μL of 10 mM IBS008739 stock solution in DMSO or 0.17 μL of DMSO, and used to layer the pre-coated wells, and proliferation in the 3D matrigel was observed (see FIG. 12B). 300 of A431 cells were placed in each well of Ultra Low Attachment 96-well plate, and cultured in a serum-free DMEM-F-12 medium containing 10 ng/mL FGF, 5 μg/mL insulin and 0.1% (w/v) BSA. Formation of tumor spheres was observed under the condition with 10 mM IBS008739 stock solution dissolved in DMSO so that the final concentration was 10 μM, or the condition with DMSO of the same volume (see FIG. 12C). The maximum diameter of 30 cell aggregates of 150 μm or more observed in the 3D matrigel or sphere formation condition) are measured as the size of 3D colony or sphere. The results are shown in Table 10 and FIGS. 12B and 12C. The line in the figure is 200 μm. The line and the error bar indicate the average value and the standard error, and ns refers to not significant.
# Observation of the spheres and the 3D matrigel cultivation were performed by the following processes. […]
# C2C12 cells = test: Muscle formation in C2C12 cells with or without TAZ knockdown (anti-MHC immunostaining, immunoblotting); type: cell-based, mouse; details: C2C12 cells with TAZ not knocked down (si Cont); 10 μM; 72 hours
# Method: (2) C2C12 cells with TAZ knocked down by a method described in Sci Signal 2:ra59 (si TAZ) and C2C12 cells with TAZ not knocked down (si Cont) were cultured for 72 hours in a culture medium added with IBS008738 or DMSO at a concentration of 10 μM, respectively, and were immunostained with an anti-MHC antibody (the white portion in FIG. 3B, the bar is 100 μm). Further, immunoblotting was performed with an anti-MHC antibody and an anti-TAZ antibody (see FIG. 3C). […] Further, the expression of MHC was lost by the knockdown of TAZ.
# Human TAZ and mouse TAZ were knocked down in MCF10A cells and C2C12 cells as described previously (Ikeda M et al., Sci Signal 2:ra59). The double strand (ds) RNAs used are human TAZ (Ambion s24789) and mouse TAZ (Dharmacon siRNA D-041057).
smiles,measurement,setting,value
Cc1ccc(-n2cnc(/N=C/N3CCOCC3)c2C(=O)c2ccccc2)cc1 [exemplary compound 1],number of the Pax7-positive cells compared with DMSO,Balb/c ByJ mice,greater
same,number of the centrally nucleated muscle fibers compared with DMSO,Balb/c ByJ mice,greater
same,"EMT markers (fibronectin, E-cadherin, N-cadherin and vimentin) compared with DMSO",HCT116 cells,no significant difference
same,"3D colony size, average size (μm)",A431 cells,272.30 μm
same,muscle formation,C2C12 cells,promoted muscle formation
